Data: patent US8691846B2, “Piperidine sulphonamide derivatives” (Hoffmann-La Roche, Inc., priority 2008, dated 2014)

Target: T1, human orexin-2 (hOX2) receptors (Homo sapiens, UniProt O43614)
T1 construct: expressed in transfected cells
T1 sequence (O43614 1-444): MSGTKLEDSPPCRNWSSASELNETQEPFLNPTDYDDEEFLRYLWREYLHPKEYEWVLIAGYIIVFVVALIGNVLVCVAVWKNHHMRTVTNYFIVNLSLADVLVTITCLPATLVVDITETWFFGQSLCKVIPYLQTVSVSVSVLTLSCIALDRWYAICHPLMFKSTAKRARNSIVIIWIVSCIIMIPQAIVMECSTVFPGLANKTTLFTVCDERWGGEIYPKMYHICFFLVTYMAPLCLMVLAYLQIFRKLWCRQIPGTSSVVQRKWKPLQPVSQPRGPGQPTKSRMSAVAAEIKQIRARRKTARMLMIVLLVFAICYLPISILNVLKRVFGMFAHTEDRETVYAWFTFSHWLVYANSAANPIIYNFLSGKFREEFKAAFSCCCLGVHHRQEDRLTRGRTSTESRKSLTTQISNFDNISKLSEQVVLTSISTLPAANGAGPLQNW
Test: Intracellular Ca2+ mobilization assay (FLIPR), antagonism of orexin-A in CHO(dHFr-) cells expressing hOX2
Format: cell-based
Conditions: CHO(dHFr-)-OX2R cells; orexin-A at EC80 as agonist; Kb=IC50/(1+[A]/EC50); read-out: Kb (μM) OX2R (human)
Description: Intracellular Ca^2+ Mobilization Assay
The Chinese Hamster Ovary (dHFr−) mutant cell line stably expressing human orexin-1 (hOX1) or human orexin-2 (hOX2) receptors were maintained in Dulbecco's Modified Eagle Medium (1×) with GlutaMax™ 1, 4500 mg/L D-Glucose and Sodium Pyruvate (Catalog No. 31966-021, Invitrogen, Carlsbad, Calif.), 5% dialyzed fetal calf serum (Catalog No. 26400-044), 100 μg/ml penicillin and 100 μg/ml streptomycin. The cells were seeded at 5×10^4 cells/well in the poly-D-lysine treated, 96-well, black/clear-bottomed plates (Catalog No. BD356640, BD Biosciences, Palo Alto, Calif.). 24 h later, the cells were loaded for 1 h at 37° C. with 4 μM Flou-4 acetoxymethyl ester (Catalog No. F-14202, Molecular Probes, Eugene, Oreg.) in FLIPR buffer (1×HBSS, 20 mM HEPES, 2.5 mM Probenecid). Hanks' Balanced Salt Solution (HBSS) (10×) (catalog No. 14065-049) and HEPES (1M) (catalog No. 15630-056) were purchased from Invitrogen, Carlsbad, Calif. Probenecid (250 mM) (catalog No. P8761) was from Sigma, Buchs, Switzerland. The cells were washed five times with FLIPR buffer to remove excess dye and intracellular calcium mobilization, [Ca^2′]I were measured using a Fluorometric Imaging Plate Reader (FLIPR-96, Molecular Devices, Menlo Park, Calif.) as described previously (Malherbe et al., Mol. Pharmacol., 64, 823-832, 2003). Orexin A (catalog No. 1455, Toris Cookson Ltd, Bristol, UK) was used as agonist. Orexin A (50 mM stock solution in DMSO) was diluted in FLIPR buffer+0.1% BSA. The EC50 and EC80 values of orexin-A were measured daily from standard agonist concentration-response curves in CHO(dHFr−)-OX1R and -OX2R cell lines. All compounds were dissolved in 100% DMSO Inhibition curves were determined by addition of 11 concentrations (0.0001-10 μM) of inhibitory compounds and using EC80 value of orexin-A as agonist (a concentration which gave 80% of max agonist response, determined daily). The antagonists were applied 25 min (incubation at 37° C.) before the application of the agonist. Responses were measured as peak increase in fluorescence minus basal, normalized to the maximal stimulatory effect induced by EC80 value of orexin-A or orexin-B Inhibition curves were fitted according to the Hill equation: y=100/(1+(x/IC50)^nH), where nH=slope factor using Excel-fit 4 software (Microsoft).
Kb values were calculated according to the following equation Kb=IC50/(1+[A]/EC50) where A is the concentration of agonist added which is very close to agonist EC80 value, and IC50 and EC50 values were derived from the antagonist inhibition and orexin-A or B agonist curves, respectively.

SMILES	Kb [µM]
COc1ccc(Cl)cc1S(=O)(=O)N1CCCC(C(=O)N2CCCC2c2ccccc2)C1 (centres unmarked) [Example 14, [1-(5-Chloro-2-methoxy-benzenesulfonyl)-piperidin-3-yl]-(2-phenyl-pyrrolidin-1-yl)-methanone]	0.0138
COc1ccc(Cl)cc1S(=O)(=O)N1CCCC(C(=O)N2CCCCC2c2ccccc2)C1 (centres unmarked) [Example 16, [1-(5-Chloro-2-methoxy-benzenesulfonyl)-piperidin-3-yl]-(2-phenyl-piperidin-1-yl)-methanone]	0.0592
O=C(C1CCCN(S(=O)(=O)c2ccccc2Cl)C1)N1CCCC1c1ccc(F)cc1 (centres unmarked) [Example 3, [1-(2-Chloro-benzenesulfonyl)-piperidin-3-yl]-[2-(4-fluoro-phenyl)-pyrrolidin-1-yl]-methanone]	0.0788
O=C(C1CCCN(S(=O)(=O)c2cccc(Cl)c2)C1)N1CCCC1c1ccccc1 (centres unmarked) [Example 8, [1-(3-Chloro-benzenesulfonyl)-piperidin-3-yl]-(2-phenyl-pyrrolidin-1-yl)-methanone]	0.0219
O=C(C1CCCN(S(=O)(=O)c2ccccc2Cl)C1)N1CCCC1c1ccccc1Cl (centres unmarked) [Example 17, [1-(2-Chloro-benzenesulfonyl)-piperidin-3-yl]-[2-(2-chloro-phenyl)-pyrrolidin-1-yl]-methanone]	0.0113

The next lines start with the values.

Kb [µM]	SMILES
0.0053	COc1ccccc1S(=O)(=O)N1CCCC(C(=O)N2CCCC2c2ccccc2)C1 (centres unmarked) [Example 11, [1-(2-Methoxy-benzenesulfonyl)-piperidin-3-yl]-(2-phenyl-pyrrolidin-1-yl)-methanone]
0.0226	COc1ccccc1S(=O)(=O)N1CCCC(C(=O)N2CCCCC2c2ccccc2)C1 (centres unmarked) [Example 10, [1-(2-Methoxy-benzenesulfonyl)-piperidin-3-yl]-(2-phenyl-piperidin-1-yl)-methanone]
0.02	O=C(C1CCCN(S(=O)(=O)c2ccccc2Cl)C1)N1CCCC1c1ccccc1 (centres unmarked) [Example 7, [1-(2-Chloro-benzenesulfonyl)-piperidin-3-yl]-(2-phenyl-pyrrolidin-1-yl)-methanone]

Same assay, conditions: Table 1; CHO(dHFr-)-OX2R cells; orexin-A at EC80 as agonist; Kb=IC50/(1+[A]/EC50); read-out: Kb hOx2

SMILES	Kb [µM]
O=C(C1CCCN(S(=O)(=O)c2ccc(F)cc2)C1)N1CCCCC1c1ccccc1 (centres unmarked) [Example 6, [1-(4-Fluoro-benzenesulfonyl)-piperidin-3-yl]-(2-phenyl-piperidin-1-yl)-methanone]	0.756
COc1cccc(S(=O)(=O)N2CCCC(C(=O)N3CCCC3c3ccccc3)C2)c1 (centres unmarked) [Example 9, [1-(3-Methoxy-benzenesulfonyl)-piperidin-3-yl]-(2-phenyl-pyrrolidin-1-yl)-methanone]	0.122
O=C(C1CCCN(S(=O)(=O)c2ccc(F)cc2)C1)N1CCCC1c1ccccc1 (centres unmarked) [Example 13, [1-(4-Fluoro-benzenesulfonyl)-piperidin-3-yl]-(2-phenyl-pyrrolidin-1-yl)-methanone]	0.334
O=C(C1CCCN(S(=O)(=O)c2ccccc2Cl)C1)N1CCCC1c1ccc(Cl)c(Cl)c1 (centres unmarked) [Example 18, [1-(2-Chloro-benzenesulfonyl)-piperidin-3-yl]-[2-(3,4-dichloro-phenyl)-pyrrolidin-1-yl]-methanone]	0.75
O=C(C1CCCN(S(=O)(=O)c2ccccc2)C1)N1CCCC1c1ccccc1 (centres unmarked) [Example 15, (1-Benzenesulfonyl-piperidin-3-yl)-(2-phenyl-pyrrolidin-1-yl)-methanone]	0.258
O=C(C1CCCN(S(=O)(=O)c2ccccc2Cl)C1)N1CCCC1c1cc(Cl)cc(Cl)c1 (centres unmarked) [Example 19, [1-(2-Chloro-benzenesulfonyl)-piperidin-3-yl]-[2-(3,5-dichloro-phenyl)-pyrrolidin-1-yl]-methanone]	0.67

Other lines, results leading:

Kb [µM]	SMILES
0.118	O=C(C1CCCN(S(=O)(=O)c2ccccc2Cl)C1)N1CCCCC1c1ccccc1 (centres unmarked) [Example 4, [1-(2-Chloro-benzenesulfonyl)-piperidin-3-yl]-(2-phenyl-piperidin-1-yl)-methanone]
0.55	O=C(C1CCCN(S(=O)(=O)c2cccc(Cl)c2)C1)N1CCCCC1c1ccccc1 (centres unmarked) [Example 5, [1-(3-Chloro-benzenesulfonyl)-piperidin-3-yl]-(2-phenyl-piperidin-1-yl)-methanone]
0.309	O=C(C1CCCN(S(=O)(=O)c2ccccc2)C1)N1CCCCC1c1ccccc1 (centres unmarked) [Example 12, (1-Benzenesulfonyl-piperidin-3-yl)-(2-phenyl-piperidin-1-yl)-methanone]
